# Experiments:
# Format in all cases: cell-based, mouse
# [1] = test system: embryonic cortical neurons; test: Cell viability of primary cortical neurons (MTT assay, live/dead assay)
# Procedure: (§1) FIG. 1. Amino acid depletion and thapsigargin treatment induce ATF4 and protect embryonic cortical neurons from oxidative stress-induced cell death. (A) Cortical neuronal cultures (1 d in vitro) were treated with a vehicle control (shown as C), 10 mM of the glutamate analogue HCA, 1 μg/ml arginase, 1 μM thapsigargin, 1 μg/ml arginase and 10 mM HCA, or 10 mM HCA and 1 μM thapsigargin. 24 h later, cell viability was determined using the MTT assay. The graph depicts mean (compared with control)±SD calculated from three separate experiments for each group (n=25). *, P<0.05 from HCA-treated cultures by the Kruskal-Wallis test followed by Dunn's multiple comparisons test. (B) Live/dead assay of cortical neuronal cultures (2 d in vitro). Live cells were detected by uptake and trapping of calcein-AM (green fluorescence). […] Bar, 50 μm. […] Cells were harvested at the indicated time points, and nuclear extracts were separated using gel electrophoresis and immunodetected using an antibody against ATF4. YY1 was monitored as a loading control. The immunoblot is a representative example of three experiments.
# (§2) FIG. 5. ATF4 has a negative impact on the neuronal glutathione metabolism. (A) ATF4^+/+ (♦) and ATF4^−/− (▴) cortical neurons were treated with 10 mM HCA. At the indicated time points, cells were trypsinized, washed, and pelleted. Reduced glutathione (GSH) was determined in the cell pellets using HPLC electrochemical detection. Data are from three separate cultures, and each data point was measured in duplicate. Graph depicts mean±SD. (B) Schematic overview over cysteine uptake and glutathione synthesis and their inhibition. (C) ATF4^+/+ and ATF4^−/− cortical neurons were treated with a vehicle control (shown as C) or 200 μM BSO. 24 h later, cell viability was determined using the MTT assay. The graph depicts mean (compared with control)±SD calculated from five separate experiments for each group (n=46 ATF4^+/+ and 58 ATF4^−/−). *, P<0.05 from untreated ATF4^+/+ cultures by the Kruskal-Wallis test followed by Dunn's multiple comparisons test. The difference between treated and untreated ATF4^−/− neurons was not significant (n.s.). (D) Live/dead assay displaying untreated and BSO-treated ATF4^+/+ and ATF4^−/− neurons. Bar, 50 μm. […] Cytoplasmic extracts were separated using gel electrophoresis and immunodetected using an antibody against γGCS. Total eIF2α was monitored as a loading control. (F) ATF4^+/+ (♦) and ATF4^−/− (▪) cortical neurons were treated with 200 μM BSO. At the indicated time points, cells were trypsinized, washed, and pelleted. GSH was determined in the cell pellets using HPLC electrochemical detection. Data are from three separate cultures, and each data point was measured in duplicate. Graph depicts mean±SD. (G) ATF4^+/+ cortical neurons were infected with GFP (♦), ATF4WT (▪), and ATF4ΔRK (▴) adenoviruses at an MOI of 100. At the indicated time points after infection, cells were trypsinized, washed, and pelleted. GSH was determined in the cell pellets using HPLC electrochemical detection. The graph depicts mean±SD calculated from three separate experiments for each group, and each data point was measured in duplicate. The value obtained from noninfected neurons was arbitrarily defined as 100%. […] The graph depicts mean (compared with control) ±SD calculated from five separate experiments for each group (n=29). *, P<0.05 from untreated neurons overexpressing ATF4WT by the Kruskal-Wallis test followed by Dunn's multiple comparisons test. […]
# [2] = test system: reduced glutathione (GSH) in cortical neurons; test: Reduced glutathione (GSH) in cortical neurons by HPLC electrochemical detection; conditions: 10 mM HCA or 200 μM BSO, time course; for glutathione concentration, ATF4+/+ neurons: ATF4+/+ cortical neurons; for glutathione concentration, ATF4−/− neurons: ATF4−/− cortical neurons
# Procedure: as §2, with “BSO. […]” for “BSO. At the indicated time points, cells were trypsinized, washed, and pelleted.”, “duplicate. […]” for “duplicate. Graph depicts mean±SD. (G) ATF4^+/+ cortical neurons were infected with GFP (♦), ATF4WT (▪), and ATF4ΔRK (▴) adenoviruses at an MOI of 100. At the indicated time points after infection, cells were trypsinized, washed, and pelleted.”, “duplicate.” for “duplicate. The value obtained from noninfected neurons was arbitrarily defined as 100%.”
# Concentrations of reduced glutathione were measured using HPLC (PerkinElmer) equipped with an eight-channel coulometric array detector (ESA, Inc.). […] Glutathione concentrations of supernatant fractions were determined by injecting 5-μl aliquots onto an Ultrasphere 5 u, 4.6×250 mm, C18 column (Beckman Coulter), and eluting with a mobile phase of 50 mM NaH2PO4, 0.05 mM octane sulfonic acid, 1.5% acetonitrile (pH 2.62) at a flow rate of 1 ml/min. Peak areas were analyzed using software from ESA, Inc. Intracellular generation of ROS was determined by DCF. Cortical neurons were seeded in 96-well fluorescence plates. […] Cells were washed with HBSS and read on a plate reader (Fluorometer; MDS Analytical Technologies) at 485-nm excitation and 530-nm emission wavelengths.
# [3] = test system: ATF4; test: ATF4 immunoblot of nuclear extracts from cultured cortical neurons; conditions: 10 mM HCA, 1 μg/ml arginase or 1 μM thapsigargin, versus vehicle control
# Procedure: as §1
# [4] = test system: TRB3 mRNA; test: Real-time PCR of TRB3 mRNA expression in cortical neurons; conditions: 10 mM HCA; ATF4-dependent (ATF4+/+ versus ATF4−/− neurons)
SMILES,"glutathione concentration, ATF4+/+ neurons [2]","glutathione concentration, ATF4−/− neurons [2]",ATF4 protein expression/accumulation [3],other results
"COc1ccc(O)c(C(C)(C)C)c1 [BHA, butylated hydroxyanisol]",,,,"neuronal viability in neurons overexpressing ATF4WT ([1]; ATF4+/+ cortical neurons infected with ATF4WT adenovirus, MOI 100, 10 μM BHA): significantly increased neuronal viability; protection against additional HCA toxicity in neurons overexpressing ATF4WT ([1]; ATF4WT adenovirus, MOI 100, 10 μM BHA plus 10 mM HCA): protected against the additional toxic effect of HCA treatment"
"CCCCS(=N)(=O)CCC(N)C(=O)O (stereo not drawn) [BSO, buthionine sulfoximine]",decline in the concentration of glutathione,distinctly slower reduction of glutathione,,"cell viability, ATF4+/+ neurons ([1]; 200 μM BSO, 24 h, ATF4+/+ cortical neurons): resulted in cell death; cell viability, ATF4−/− neurons ([1]; 200 μM BSO, 24 h, ATF4−/− cortical neurons): essentially resistant"
"NC(CCS(=O)(=O)O)C(=O)O (stereo not drawn) [HCA, homocysteate]",progressive loss of glutathione,markedly slower decline in glutathione concentration,increases the expression of ATF4,TRB3 mRNA expression [4]: induced
C/C=C(/C)C(=O)O[C@H]1C(C)=C2[C@H]([C@@H]1OC(=O)CCCCCCC)[C@@](C)(OC(C)=O)C[C@H](OC(=O)CCC)[C@@]1(O)[C@H]2OC(=O)[C@@]1(C)O [thapsigargin],,,accumulation of ATF4 protein,"protection from oxidative stress-induced neuronal cell death ([1]; 10 mM HCA, 24 h, 1 μg/ml arginase or 1 μM thapsigargin, MTT and live/dead assay): nearly complete protection from neuronal cell death"

# From patent US9034299B2, “ATF4 inhibitors and their use for neural protection, repair, regeneration, and plasticity” (priority 2007, dated 2015)
